# Assay results: patent US12396459B2, “Synergistically effective herbicide composition comprising pyridate and at least one defined 4-HPPD inhibitor” (BELCHIM CROP PROTECTION NV, priority 2018, dated 2025)
# Assays:
# Assay type in all cases: in vivo
# [1] = test system: Kickxia elatine; assay: Field trial post-emergence in maize: KICEL
# Description: (§1) Herbicidal activity of herbicide compositions according to the first aspect of the present invention with regard to different types of unwanted vegetation was determined during trials performed on test fields (field trials). Individual compositions comprising pyridate and individual compositions comprising a defined 4-HPPD inhibitor are compared with a herbicide composition according to the invention comprising both pyridate and a defined 4-HPPD inhibitor. The expected activity of the combination of the active compounds pyridate and a defined 4-HPPD inhibitor is calculated according to above mentioned calculation method by Colby, in order to evaluate a synergistic effect between pyridate and a defined 4-HPPD inhibitor.
# (§2) Herbicidal activity was determined by applying herbicide compositions on emerged unwanted vegetation on fields where maize was cultivated. Pyridate and a defined 4-HPPD inhibitor were applied as a tank mixture by mixing these active compounds prior to use in a spray tank. The corresponding mixture was in the form of a spray liquor. Besides, spray liquors of individual compositions comprising pyridate and of individual compositions comprising a defined 4-HPPD inhibitor were used. Test plants of unwanted vegetation with a growth stage corresponding to BBCH 10-18 (according to the extended BBCH-scale) were sprayed with the active compound preparations such that particular desired amounts of active compounds are applied per unit area. Spray liquor was diluted with water to arrive at an application volume of 50 to 450 L/ha. At a specified number of days after application (DAA), the degree of damage to the unwanted vegetation is rated in % of plants of unwanted vegetation that were killed, which was assessed by visually controlling the plants.
# (§3) Example 1 concerns a herbicide composition comprising a combination of pyridate and mesotrione, which was applied post-emergence on unwanted vegetation on a field where maize was cultivated, according to the test conditions mentioned above.
# [2] = test system: Capsella bursa-pastoris; assay: Field trial post-emergence in maize: CAPBP
# Description: as §1, §2
# [3] = test system: Rumex obtusifolius; assay: Field trial post-emergence in maize: RUMOB
# Description: as §1, §2, §3
# [4] = test system: Datura stramonium; assay: Field trial post-emergence in maize: DATST; conditions: 7-14 DAA; # = 2; g a.c./ha: PYR 300, MES 100, PYR + MES 300 + 90
# Description: as §1
# (§4) Herbicidal activity was determined by applying herbicide compositions on emerged unwanted vegetation on fields where maize was cultivated. Pyridate and a defined 4-HPPD inhibitor were applied as a tank mixture by mixing these active compounds prior to use in a spray tank. The corresponding mixture was in the form of a spray liquor. […] At a specified number of days after application (DAA), the degree of damage to the unwanted vegetation is rated in % of plants of unwanted vegetation that were killed, which was assessed by visually controlling the plants.
# [5] = test system: Poa annua; assay: Field trial post-emergence in maize: POAAN; conditions: for herbicidal effect (h.e.): g a.c./ha: PYR 300, MES 100, PYR + MES 300 + 90
# Description: as §1, §2
# [6] = test system: Mercurialis annua; assay: Field trial post-emergence in maize: MERAN
# Description: as §1, §2, §3
# [7] = test system: Digitaria sanguinalis; assay: Examples 6-8 herbicidal effect: DIGSA; conditions: 7 DAA
# [8] = test system: Matricaria chamomilla; assay: Examples 6-8 herbicidal effect: MATCH; conditions: 7 DAA
# [9] = test system: Atriplex patula; assay: Field trial post-emergence in maize: ATXPA
# Description: as §1, §2, §3
# [10] = test system: Galinsoga parviflora; assay: Field trial post-emergence in maize: GASPA; conditions: 31-48 DAA; # = 3; g a.c./ha: PYR 300, MES 100, PYR + MES 300 + 90
# Description: as §1, §4
# [11] = test system: Solanum nigrum; assay: Field trial post-emergence in maize: SOLNI; conditions: for herbicidal effect (h.e.): g a.c./ha: PYR 300, MES 100, PYR + MES 300 + 90
# Description: as §1, §2
# [12] = test system: Convolvulus arvensis; assay: Field trial post-emergence in maize: CONAR
# Description: as §1, §2, §3
# [13] = test system: Brassica napus; assay: Field trial post-emergence in maize: BRSNN; conditions: # = 1, g a.c./ha: PYR 300, MES 100, PYR + MES 300 + 90
# Description: as §1, §2
# [14] = test system: Erodium ciconium; assay: Field trial post-emergence in maize: EROCC
# Description: as §1, §2, §3
# [15] = test system: Geranium dissectum; assay: Examples 6-8 herbicidal effect: GERDI; conditions: 7 DAA
# [16] = test system: Hibiscus ternatus; assay: Field trial post-emergence in maize: HIBTR; conditions: 7-14 DAA; # = 2; g a.c./ha: PYR 300, MES 100, PYR + MES 300 + 90
# Description: as §1, §4
# [17] = test system: Veronica persica; assay: Field trial post-emergence in maize: VERPE; conditions: for herbicidal effect (h.e.): g a.c./ha: PYR 300, MES 100, PYR + MES 300 + 90
# Description: as §1, §2
# [18] = test system: Stachys arvensis; assay: Field trial post-emergence in maize: STAAR; conditions: 7-14 DAA; # = 1; g a.c./ha: PYR 300, MES 100, PYR + MES 300 + 90
# Description: as §1, §4
# [19] = g a.c./ha: PYR 10, TEM 22, PYR + TEM 10 + 100
# [20] = g a.c./ha: PYR 300, PYR + MES 300 + 80
# [21] = g a.c./ha: PYR 300, SCT 300, PYR + SCT 300 + 300
# [22] = g a.c./ha: PYR 300, TEM 100, PYR + TEM 300 + 100
# [23] = g a.c./ha: PYR 450, SCT 450, PYR + SCT 300 + 450
# [24] = g a.c./ha: PYR 600, PYR + SCT 600 + 300
# [25] = g a.c./ha: PYR 900, TEM 44, PYR + TEM 900 + 44
smiles,measurement,setting,value
"CCCCCCCCSC(=O)Oc1cc(Cl)nnc1-c1ccccc1 [PYR, (6-chloro-3-phenylpyridazin-4-yl) octylsulfanylformate]",PYR h.e.,[1]; KICEL 14-20 DAA 300 g a.c./ha,0%
same,PYR h.e.,[1]; KICEL 14-20 DAA 600 g a.c./ha,0%
same,PYR h.e.,[1]; KICEL 14-20 DAA 900 g a.c./ha,0%
same,PYR h.e.,[1]; KICEL 24-31 DAA 300 g a.c./ha,0%
same,PYR h.e.,[1]; KICEL 24-31 DAA 600 g a.c./ha,0%
same,PYR h.e.,[1]; KICEL 24-31 DAA 900 g a.c./ha,0%
same,herbicidal effect (h.e.),"[2]; 7-14 DAA, # = 3, g a.c./ha: PYR 300, MES 100, PYR + MES 300 + 90",51%
same,PYR h.e.,[2]; CAPBP 14-20 DAA 300 g a.c./ha,59%
same,PYR h.e.,[2]; CAPBP 14-20 DAA 600 g a.c./ha,65%
same,PYR h.e.,[2]; CAPBP 14-20 DAA 900 g a.c./ha,73%
same,PYR h.e.,[2]; CAPBP 24-31 DAA 300 g a.c./ha,53%
same,PYR h.e.,[2]; CAPBP 24-31 DAA 600 g a.c./ha,61%
same,PYR h.e.,[2]; CAPBP 24-31 DAA 900 g a.c./ha,73%
same,PYR h.e.,[3]; RUMOB 14-20 DAA 300 g a.c./ha,20%
same,PYR h.e.,[3]; RUMOB 14-20 DAA 600 g a.c./ha,30%
same,PYR h.e.,[3]; RUMOB 14-20 DAA 900 g a.c./ha,55%
same,herbicidal effect (h.e.),[4],70%
same,herbicidal effect (h.e.),"[5]; 7-14 DAA, # = 2",25%
same,herbicidal effect (h.e.),"[5]; 18-28 DAA, # = 3",17%
same,herbicidal effect (h.e.),"[5]; 31-48 DAA, # = 2",17%
same,PYR h.e.,[5]; POAAN 14-20 DAA 300 g a.c./ha,7%
same,PYR h.e.,[5]; POAAN 14-20 DAA 600 g a.c./ha,17%
same,PYR h.e.,[5]; POAAN 14-20 DAA 900 g a.c./ha,36%
same,PYR h.e.,[5]; POAAN 24-31 DAA 300 g a.c./ha,5%
same,PYR h.e.,[5]; POAAN 24-31 DAA 600 g a.c./ha,13%
same,PYR h.e.,[5]; POAAN 24-31 DAA 900 g a.c./ha,28%
same,PYR h.e.,[6]; MERAN 14-20 DAA 300 g a.c./ha,48%
same,PYR h.e.,[6]; MERAN 14-20 DAA 600 g a.c./ha,78%
same,PYR h.e.,[6]; MERAN 24-31 DAA 300 g a.c./ha,10%
same,PYR h.e.,[6]; MERAN 24-31 DAA 600 g a.c./ha,33%
same,PYR h.e.,[6]; MERAN 24-31 DAA 900 g a.c./ha,80%
same,herbicidal effect (h.e.),[7]; [19],0%
same,herbicidal effect (h.e.),[7]; [20],0%
same,herbicidal effect (h.e.),[7]; [21],0%
same,herbicidal effect (h.e.),[7]; [22],5%
same,herbicidal effect (h.e.),[7]; [23],0%
same,herbicidal effect (h.e.),[7]; [24],5%
same,herbicidal effect (h.e.),[7]; [25],0%
same,herbicidal effect (h.e.),[8]; [19],0%
same,herbicidal effect (h.e.),[8]; [20],0%
same,herbicidal effect (h.e.),[8]; [21],0%
same,herbicidal effect (h.e.),[8]; [22],0%
same,herbicidal effect (h.e.),[8]; [23],0%
same,herbicidal effect (h.e.),[8]; [24],0%
same,herbicidal effect (h.e.),[8]; [25],0%
same,PYR h.e.,[9]; ATXPA 24-31 DAA 300 g a.c./ha,43%
same,PYR h.e.,[9]; ATXPA 24-31 DAA 600 g a.c./ha,49%
same,herbicidal effect (h.e.),[10],40%
same,herbicidal effect (h.e.),"[11]; 18-28 DAA, # = 7",58%
same,herbicidal effect (h.e.),"[11]; 31-48 DAA, # = 6",55%
same,PYR h.e.,[11]; SOLNI 14-20 DAA 300 g a.c./ha,75%
same,PYR h.e.,[11]; SOLNI 14-20 DAA 600 g a.c./ha,88%
same,PYR h.e.,[12]; CONAR 14-20 DAA 300 g a.c./ha,35%
same,PYR h.e.,[12]; CONAR 14-20 DAA 600 g a.c./ha,40%
same,PYR h.e.,[12]; CONAR 14-20 DAA 900 g a.c./ha,45%
same,PYR h.e.,[12]; CONAR 24-31 DAA 600 g a.c./ha,48%
same,PYR h.e.,[12]; CONAR 24-31 DAA 900 g a.c./ha,45%
same,herbicidal effect (h.e.),[13]; 7-14 DAA,50%
same,herbicidal effect (h.e.),[13]; 18-28 DAA,11%
same,herbicidal effect (h.e.),[13]; 31-48 DAA,6%
same,PYR h.e.,[14]; EROCC 14-20 DAA 300 g a.c./ha,89%
same,PYR h.e.,[14]; EROCC 14-20 DAA 600 g a.c./ha,96%
same,herbicidal effect (h.e.),[15]; [19],0%
same,herbicidal effect (h.e.),[15]; [20],5%
same,herbicidal effect (h.e.),[15]; [21],15%
same,herbicidal effect (h.e.),[15]; [22],5%
same,herbicidal effect (h.e.),[15]; [23],30%
same,herbicidal effect (h.e.),[15]; [24],15%
same,herbicidal effect (h.e.),[15]; [25],10%
same,herbicidal effect (h.e.),[16],36%
same,herbicidal effect (h.e.),"[17]; 7-14 DAA, # = 4",58%
same,herbicidal effect (h.e.),"[17]; 31-48 DAA, # = 5",44%
same,PYR h.e.,[17]; VERPE 14-20 DAA 300 g a.c./ha,0%
same,PYR h.e.,[17]; VERPE 14-20 DAA 600 g a.c./ha,20%
same,PYR h.e.,[17]; VERPE 14-20 DAA 900 g a.c./ha,40%
same,PYR h.e.,[17]; VERPE 24-31 DAA 300 g a.c./ha,10%
same,PYR h.e.,[17]; VERPE 24-31 DAA 600 g a.c./ha,0%
same,PYR h.e.,[17]; VERPE 24-31 DAA 900 g a.c./ha,0%
same,herbicidal effect (h.e.),[18],35%
